Experimental data as given in patent publication US11555012B2 (Nimbus Artemis, Inc., priority 2018, dated 2023).

The compounds below were run against ACL (Homo sapiens (Human), UniProt P53396) (assay: ADP-Glo Assay). Settings: not given.
Chain of ACL (P53396 other isoform, or with tags, fused parts or gaps isoform P53396-2): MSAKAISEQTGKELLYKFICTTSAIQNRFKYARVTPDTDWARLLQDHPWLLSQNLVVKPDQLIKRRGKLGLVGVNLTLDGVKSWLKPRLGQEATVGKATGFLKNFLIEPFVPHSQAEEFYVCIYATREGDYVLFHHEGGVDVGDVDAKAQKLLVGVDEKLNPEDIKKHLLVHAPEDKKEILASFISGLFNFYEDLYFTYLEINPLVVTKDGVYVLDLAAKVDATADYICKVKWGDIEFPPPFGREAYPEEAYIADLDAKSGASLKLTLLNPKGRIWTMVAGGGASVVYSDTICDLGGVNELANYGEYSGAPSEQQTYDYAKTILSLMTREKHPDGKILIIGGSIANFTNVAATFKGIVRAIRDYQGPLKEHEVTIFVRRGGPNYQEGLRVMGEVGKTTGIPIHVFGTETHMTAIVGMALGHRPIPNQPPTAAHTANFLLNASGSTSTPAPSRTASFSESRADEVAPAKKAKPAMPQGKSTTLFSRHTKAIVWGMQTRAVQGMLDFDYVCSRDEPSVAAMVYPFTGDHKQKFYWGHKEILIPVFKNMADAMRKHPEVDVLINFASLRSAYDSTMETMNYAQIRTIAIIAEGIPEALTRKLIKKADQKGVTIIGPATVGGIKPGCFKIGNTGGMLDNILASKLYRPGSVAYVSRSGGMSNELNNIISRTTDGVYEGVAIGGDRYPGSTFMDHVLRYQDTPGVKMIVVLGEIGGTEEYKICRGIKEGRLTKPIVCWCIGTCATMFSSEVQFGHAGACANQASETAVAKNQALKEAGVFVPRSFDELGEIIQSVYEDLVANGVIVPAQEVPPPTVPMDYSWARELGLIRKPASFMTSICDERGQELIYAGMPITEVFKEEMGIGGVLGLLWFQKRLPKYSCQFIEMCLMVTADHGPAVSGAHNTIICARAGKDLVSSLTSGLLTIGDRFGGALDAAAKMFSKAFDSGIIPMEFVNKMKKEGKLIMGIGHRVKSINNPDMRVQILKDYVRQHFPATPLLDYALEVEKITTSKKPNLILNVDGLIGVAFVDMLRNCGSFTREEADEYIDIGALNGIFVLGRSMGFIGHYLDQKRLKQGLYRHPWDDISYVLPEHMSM

Row | IC50 [µM] | Compound
1 | > 20 | CS(=O)(=O)c1ccccc1S(=O)(=O)Nc1cc(-c2ccccc2)c(F)cc1F [I-385, N-[4,6-difluoro-[1,1-biphenyl]-3-yl]-2-methanesulfonylbenzene-1-sulfonamide]
2 | 0.5 to 20 | O=C(c1cc(Cl)c(O)c(NS(=O)(=O)c2cc(-c3ccccc3)ccc2F)c1)N1CCC1 [I-215, N-[5-(azetidine-1-carbonyl)-3-chloro-2-hydroxyphenyl]-4-fluoro-[1,1-biphenyl]-3-sulfonamide]
3 | > 20 | CCS(=O)(=O)Nc1ccc(S(=O)(=O)Nc2cc(-c3ccccc3)ccc2F)c(OC)c1 [I-523, 4-(ethylsulfonamido)-N-(4-fluoro-[1,1′-biphenyl]-3-yl)-2-methoxybenzenesulfonamide]
4 | 0.5 to 20 | O=C1COc2cc(S(=O)(=O)Nc3cc(-c4ccccc4)ccc3F)c(Cl)cc2N1 [I-255]
5 | 0.5 to 20 | O=S(=O)(Nc1cc(-c2ccccc2)ccc1F)c1cc(Cl)cc2ccoc12 [I-223, 5-chloro-N-[4-fluoro-[1,1-biphenyl]-3-yl]-1-benzofuran-7-sulfonamide]
6 | > 20 | COc1ccc(-c2ccccc2)cc1NS(=O)(=O)c1cc(C(=O)N2CCC2)cc(Cl)c1OC [I-374, 5-(azetidine-1-carbonyl)-3-chloro-2-methoxy-N-[4-methoxy-[1,1-biphenyl]-3-yl]benzene-1-sulfonamide]
7 | > 20 | COc1ccc(-c2ccccc2)cc1NS(=O)(=O)c1ccc(O)c(Cl)c1 [I-416, 3-chloro-4-hydroxy-N-(2-methoxy-5-phenylphenyl)benzene-1-sulfonamide]
8 | 0.5 to 20 | O=C(O)c1ccc(-c2ccccc2)cc1NS(=O)(=O)c1ccc(-n2cccn2)c(F)c1 [I-358]
9 | 0.5 to 20 | O=S(=O)(Nc1cc(-c2ccccc2)ccc1F)c1ccc(Cl)c(-c2nnn[nH]2)c1 [I-252]
10 | 0.5 to 20 | Cc1cc(S(=O)(=O)Nc2cc(-c3ccccc3)ccc2C(=O)O)ccc1-n1cnnn1 [I-357]
11 | 0.5 to 20 | O=S(=O)(Nc1cc(-c2ccccc2)c(F)cc1F)c1cc(Cl)ccc1F [I-156, 5-chloro-N-(4,6-difluoro-[1,1′-biphenyl]-3-yl)-2-fluorobenzenesulfonamide]
12 | 0.5 to 20 | Cc1cccc(CS(=O)(=O)Nc2cc(-c3ccccc3)ccc2C(=O)O)c1 [I-310, 3-((m-tolylmethyl)sulfonamido)-[1,1′-biphenyl]-4-carboxylic acid]
13 | 0.5 to 20 | CCS(=O)(=O)Nc1cc(OC)ccc1S(=O)(=O)Nc1cc(-c2ccccc2)ccc1F [I-254]
14 | 0.5 to 20 | O=C(c1c[nH]c(=O)c(S(=O)(=O)Nc2cc(-c3ccccc3)ccc2F)c1)N1CCC1 [I-369, 5-(azetidine-1-carbonyl)-N-(4-fluoro-[1,1′-biphenyl]-3-yl)-2-oxo-1,2-dihydropyridine-3-sulfonamide]
15 | > 20 | COC(=O)c1cc(Cl)cc(S(=O)(=O)Nc2cc(-c3ccccc3)ccc2OC)c1O [I-431, Methyl 5-chloro-2-hydroxy-3-(N-(4-methoxy-[1,1′-biphenyl]-3-yl)sulfamoyl)benzoate]
16 | 0.5 to 20 | CC(=O)c1cccc(S(=O)(=O)Nc2cc(-c3ccccc3)ccc2C(=O)O)c1 [I-314, 3-((3-acetylphenyl)sulfonamido)-[1,1′-biphenyl]-4-carboxylic Acid]
17 | 0.5 to 20 | COc1c(Cl)cc(C(=O)O)cc1S(=O)(=O)Nc1cc(-c2ccccc2)ccc1F [I-70, 3-chloro-5-([4-fluoro-[1,1-biphenyl]-3-yl]sulfamoyl)-4-methoxybenzoic Acid]
18 | > 20 | O=C(O)COc1ccccc1S(=O)(=O)Nc1cc(-c2ccccc2)ccc1F [I-379, 2-(2-(N-(4-fluoro-[1,1′-biphenyl]-3-yl)sulfamoyl)phenoxy)acetic Acid]
19 | 0.5 to 20 | O=C(O)c1ccc(-c2ccccc2)cc1NS(=O)(=O)c1ccc2[nH]c(=O)[nH]c2c1 [I-258]
20 | 0.5 to 20 | O=c1[nH]c2cc(F)c(S(=O)(=O)Nc3cc(-c4ccccc4)ccc3F)cc2o1 [I-253]
21 | > 20 | O=C(O)c1cc(Cl)c(O)c(S(=O)(=O)Nc2ccc(F)c(-c3ccccc3)c2F)c1 [I-444, 3-chloro-5-[(2,4-difluoro-3-phenylphenyl)sulfamoyl]-4-hydroxybenzoic acid]
22 | 0.5 to 20 | CC(=O)N1CCCN(c2ccc(-c3ccccc3)cc2NS(=O)(=O)c2cc(Cl)cc(Cl)c2O)CC1 [I-279, N-[4-(4-acetyl-1,4-diazepan-1-yl)-[1,1-biphenyl]-3-yl]-3,5-dichloro-2-hydroxybenzene-1-sulfonamide]
23 | > 20 | COc1ccc(-c2ccccc2)cc1NS(=O)(=O)c1cc(Cl)cc(Cl)c1OC [I-402, 3,5-dichloro-2-methoxy-N-(4-methoxy-[1,1′-biphenyl]-3-yl)benzenesulfonamide]
24 | > 20 | COc1ccc(-c2ccccc2)cc1NS(=O)(=O)c1cc(Cl)cc(Cl)c1C(=O)O [I-398, 2,4-dichloro-6-(N-(4-methoxy-[1,1′-biphenyl]-3-yl)sulfamoyl) Benzoic Acid]
25 | 0.5 to 20 | O=C(O)COc1c(Cl)cc(Cl)cc1S(=O)(=O)Nc1cc(-c2ccccc2)c(F)cc1F [I-77, 2-(2,4-dichloro-6-(N-(4,6-difluoro-[1,1′-biphenyl]-3-yl)sulfamoyl)phenoxy)acetic Acid]
26 | 0.5 to 20 | CN(C)C(=O)c1cc(Cl)c(O)c(S(=O)(=O)Nc2cc(-c3ccccc3)ccc2C(=O)O)c1 [I-271, 3-((3-chloro-5-(dimethylcarbamoyl)-2-hydroxyphenyl)sulfonamido)-[1,1′-biphenyl]-4-carboxylic Acid]
27 | > 20 | COc1ccc(-c2ccccc2)cc1NS(=O)(=O)c1cccc(-c2nnnn2C)c1 [I-437, N-(2-methoxy-5-phenylphenyl)-3-(1-methyl-1H-1,2,3,4-tetrazol-5-yl)benzene-1-sulfonamide]
28 | 0.5 to 20 | COc1ccc(-c2ccccc2)cc1NS(=O)(=O)c1cc(Cl)c(O)c(Br)c1 [I-44, 3-bromo-5-chloro-4-hydroxy-N-(2-methoxy-5-phenylphenyl)benzene-1-sulfonamide]
29 | > 20 | Cc1ccc(S(=O)(=O)Nc2cc(-c3ccccc3)ccc2F)c(C)c1OCC(=O)O [I-526, 2-(3-(N-(4-fluoro-[1,1′-biphenyl]-3-yl)sulfamoyl)-2,6-dimethylphenoxy)acetic acid]

Second part, the compound before the results:

Row | Compound | IC50 [µM]
30 | NC(=O)c1sc2ccccc2c1NS(=O)(=O)c1cc(Cl)cc(Cl)c1O [I-174] | 0.5 to 20
31 | O=S(=O)(Nc1cnc(-c2ccccc2)s1)c1cc(Cl)cc(Cl)c1O [I-189] | 0.5 to 20
32 | O=C(O)c1ccc(-c2ccccc2)cc1NS(=O)(=O)c1cc(Cl)cc(C(=O)N2CCC2)c1 [I-227, 3-((3-(azetidine-1-carbonyl)-5-chlorophenyl)sulfonamido)-[1,1′-biphenyl]-4-carboxylic Acid] | 0.5 to 20
33 | CN(C)C(=O)Oc1c(Cl)cc(C(=O)N2CCC2)cc1S(=O)(=O)Nc1cc(-c2ccccc2)c(F)cc1F [I-209, 4-(azetidine-1-carbonyl)-2-chloro-6-([4,6-difluoro-[1,1-biphenyl]-3-yl]sulfamoyl)phenyl N,N-dimethylcarbamate] | 0.5 to 20
34 | O=C(O)c1ccc(C(F)(F)F)cc1NS(=O)(=O)c1cc(Cl)cc(Cl)c1 [I-324, 2-((3,5-dichlorophenyl)sulfonamido)-4-(trifluoromethyl)benzoic Acid] | 0.5 to 20
35 | N#Cc1cc(S(=O)(=O)Nc2cc(-c3ccccc3)c(F)cc2F)ccc1F [I-381, 3-cyano-N-(4,6-difluoro-[1,1′-biphenyl]-3-yl)-4-fluorobenzenesulfonamide] | > 20
36 | O=C(O)c1cc(Cl)c(O)c(C(=O)Nc2cc(-c3ccccc3)c(F)cc2F)c1 [I-155, 3-chloro-5-((4,6-difluoro-[1,1′-biphenyl]-3-yl)carbamoyl)-4-hydroxybenzoic Acid] | 0.5 to 20
37 | CC(C)n1ncc2cc(NS(=O)(=O)c3cc(Cl)cc(Cl)c3O)ccc21 [I-169] | 0.5 to 20
38 | COc1cccc(CCNS(=O)(=O)c2cc(Cl)cc(Cl)c2O)c1 [I-188] | 0.5 to 20
39 | O=C(c1cc(Cl)cc(S(=O)(=O)Nc2cc(-c3ccccc3)c(F)cc2F)c1)N1CCC1 [I-386, 3-(azetidine-1-carbonyl)-5-chloro-N-(4,6-difluoro-[1,1′-biphenyl]-3-yl)benzenesulfonamide] | > 20
40 | Cc1ccc(C(=O)O)c(NS(=O)(=O)c2cc(Cl)cc(Cl)c2)n1 [I-527, 2-((3,5-dichlorophenyl)sulfonamido)-6-methylnicotinic acid] | > 20
41 | O=S(=O)(Nc1cc(F)cc(N2CCOCC2)c1)c1cc(Cl)cc(Cl)c1O [I-182] | 0.5 to 20
42 | COc1ccc(-c2ccc(OC)c(NS(=O)(=O)c3cc(Cl)cc(Cl)c3O)c2)cc1 [I-5, 3,5-dichloro-N-(4,4′-dimethoxy-[1,1′-biphenyl]-3-yl)-2-hydroxybenzenesulfonamide] | 0.5 to 20
43 | O=C(Nc1cc(-c2ccccc2)c(F)cc1F)c1cc(C(=O)N2CCCC2)cc(Cl)c1O [I-150, 3-chloro-N-(4,6-difluoro-[1,1′-biphenyl]-3-yl)-2-hydroxy-5-(pyrrolidine-1-carbonyl)benzamide] | 0.5 to 20
44 | O=C(O)c1c(NS(=O)(=O)c2cc(Cl)cc(Cl)c2)sc2c1CCCC2 [I-363, 2-((3,5-dichlorophenyl)sulfonamido)-4,5,6,7-tetrahydrobenzo[b]thiophene-3-carboxylic Acid] | 0.5 to 20
45 | O=C(O)c1ccc(-c2ccccc2)cc1NS(=O)(=O)CCC1CCCC1 [I-356] | 0.5 to 20
46 | COc1ccc(C(=O)OC2CC2)cc1NS(=O)(=O)c1cc(Cl)cc(Cl)c1O [I-411, cyclopropyl 3-((3,5-dichloro-2-hydroxyphenyl)sulfonamido)-4-methoxybenzoate] | > 20
47 | CS(=O)(=O)NC(=O)c1ccc(F)c(NS(=O)(=O)c2cc(Cl)cc(Cl)c2O)c1 [I-423, 3-[(3,5-dichloro-2-hydroxybenzene)sulfonamido]-4-fluoro-N-methanesulfonylbenzamide] | > 20
48 | N#Cc1cc(S(=O)(=O)Nc2cc(-c3ccccc3)c(F)cc2F)ccc1Cl [I-196, 4-chloro-3-cyano-N-(4,6-difluoro-[1,1′-biphenyl]-3-yl) benzenesulfonamide] | 0.5 to 20

Same assay, conditions: read-out: ACL-ADP-Glo (IC50); 3 nM ACL, 15 μM ATP, 3 μM CoA, 300 μM Citrate

Row | Compound | IC50 [µM]
49 | O=C(O)Cc1ccc(-c2ccccc2)cc1NS(=O)(=O)c1cc(Cl)cc(Cl)c1 [I-228, 2-(3-((3,5-dichlorophenyl)sulfonamido)-[1,1′-biphenyl]-4-yl)acetic Acid] | 0.5 to 20
